Where “and” joins values, the source holds several entries; their conditions need not be identical. Identical values can stand only once.
Test system: Salmonella typhimurium TA98
Test: Ames test, strain TA98 (reading frame shift)
Format: cell-based
Conditions: positive control at 2 µg/mL
Method: The aim of the study was to assess the mutagenic potential of three extracts obtained from stem cells using two strains of Salmonella typhimurium carrying two types of mutations: TA 98-reading frame shift and TA 100-base pair substitution.
The experimental procedure was carried out basing on the manufacturer's experimental protocol (Xenometrix).

## O=[N+]([O-])c1ccc2c(c1)Cc1ccccc1-2 [Extract 2-NF, 2-nitrofluorene]
  MOI (Multiplicity of induction compared to baseline): 6.9 and 5.6
